In this assay the test system is 922993-354-T-J3-PDC complex spheroids, viability. The assay can be described thus: Anticancer human tumor 922993-354-T-J3-PDC patient-derived endometrial carcinoma cell line growth inhibition [GQUAD]. The conditions noted are these: for viability, T/C: stronger effect = lower value. The text has this: DNA G-quadruplex Stabilizer Agents in Combinations in Complex Spheroids
A high-throughput screen of multi-cell type tumor spheroids was designed to identify active combinations of DNA G-quadruplex stabilizer agents and targeted small molecules. Complex spheroids include a stromal component modeled by human endothelial cells (HUVEC) and fibroblasts modeled by human mesenchymal stem cells (MSCs). The concentration ranges selected for each drug and investigational agent were based upon clinically achievable concentrations if the clinical Cmax of the agent was known.
Compounds. The drugs and investigational agents: pidnarulex (CX-5461; NSC782164), APTO-253 (NSC789042), BRACO-19 (NSC847499), peposertib (NSC802822), ceralasertib (NSC780249), elimusertib (NSC800525), camonsertib (NSC841442), AZD-1390 (NSC803789), olaparib (NSC753686), talazoparib (NSC767125), ART-558 (NSC835418), sotorasib (NSC818433), MRTX-1133 (NSC836407), SN-38 (NSC673596), topotecan (NSC609699), etoposide (NSC141540), doxorubicin (NSC123127), gemcitabine (NSC613327), 5-fluorouracil (NSC19893), paclitaxel (NSC125973), vemurafenib (NSC761431), panobinostat (NSC761190), R-306465 (JNJ-16241199; NSC773264), adavosertib (NSC754352), TP-3654 (NSC805149), carboplatin (NSC241240), KSQ-4279 (NSC840948), and staurosporine (NSC755774) were obtained from the National Cancer Institute (NCI) Developmental Therapeutics Program Chemical Repository (34). The FDA-approved anticancer drug set is available from the NCI Developmental Therapeutics Program. […] The stock solutions were prepared in dimethyl sulfoxide (DMSO, Sigma-Aldrich, St. Louis, MO, cat. D2650) at 800-fold the tested concentration and stored at -70 degrees C prior to their use. All drugs and investigational agents were tested over a range starting from a high concentration at or near the clinical Cmax and decreasing in half-log increments. If the clinical Cmax for an agent had not been determined, the highest concentration tested was 10 microM.
2.3 Cell Culture. All cells were maintained in an incubator at 37 degrees C and 5% CO2 with 95% humidity. The PDC lines were cultured according to standard operating procedures established by the NCI PDMR. All PDCs were thawed and cultured in Matrigel-coated flasks prepared with a working solution of 1X Ham's F-12 nutrient mix, without supplementation (Invitrogen, cat. 11765054), 100 U/mL penicillin-streptomycin (Invitrogen, cat. 15140122), and 2.5% Matrigel (Corning Inc., cat. 354248) for the first three passages. The 857933-349-R-J2-PDC line was cultured in 6C/Colon 1B media, which includes advanced DMEM/F-12 (Thermo Fisher Scientific, cat. 12634028), 10 mM HEPES (Thermo Fisher Scientific, cat. 15630080), 1X GlutaMAX supplement (Thermo Fisher Scientific, cat. 35050061), 0.1 mg/mL primocin (InvivoGen, cat. ant-pm-2), 10% defined fetal bovine serum, heat inactivated (HyClone Laboratories Inc., cat. SH30070.03HI), 50% L-WRN conditioned media (ATCC, cat. CRL-3276), 1.25 mM N-Acetyl-L-cysteine (Sigma-Aldrich, cat. A9165), 10 mM nicotinamide (Sigma-Aldrich, cat. N0636), 1X B-27 supplement (Thermo Fisher Scientific, cat. 17504044), 1X N-2 supplement (Thermo Fisher Scientific, cat. 17502048), 10 microM Y-27632 dihydrochloride (Tocris Bioscience, cat. 1254), and 50 ng/mL human EGF recombinant protein (Thermo Fisher Scientific, cat. PHG0311). The 485176-168-R4-J1-PDC line was cultured in Panc media, which includes all 6C/Colon 1B media components plus 100 ng/mL human FGF-10 (Thermo Fisher Scientific, cat. 100-26), 500 nM SB-431542 (Selleckchem, cat. S1067), and gastrin (Tocris, cat. 3006).
[…]

Where [1] appears, read: compound alone, run of 03/26/2024.

“And” between values parts separate entries of the source, which are not always exact repeats. Identical values can stand only once. Where only a bound is given, the exact number is not on record here.
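Note: spheroids exposed to compounds for seven days.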
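Throughout, for viability, T/C: 100% = DMSO vehicle control viability.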

For `C=CCn1c(=O)c2cnc(Nc3ccc(N4CCN(C)CC4)cc3)nc2n1-c1cccc(C(C)(C)O)n1`, the viability, T/C runs as follows: (compound 0.0316 µM) 79.8% and 93.2% and 78.9%; (compound 0.1 µM) 83.2% and 85.1% and 115%; (compound 0.316 µM) 107% and 109% and 113%; (compound 1 µM) 97.1% and 94.7% and 90.2%; (compound 3.16 µM) 66.1% and 73.2% and 82.1%; (compound 10 µM) 14.4% and 13.4% and 27.5%. In addition, under “curve of compound”, the IC50 was 4520 nM and 4950 nM and 6190 nM.
With `CN(C)c1ccc(Nc2c3ccc(NC(=O)CCN4CCCC4)cc3nc3cc(NC(=O)CCN4CCCC4)ccc23)cc1`, for the setting “compound 0.316 µM”, the viability, T/C is 99.4% [middle of 12 runs]. Moreover, the IC50 under setting [1] was more than 10000 nM.
On to `COc1ncnc(C2CC2)c1-c1ncc2cnn(Cc3ccc(-c4nc(C(F)(F)F)cn4C(C)C)cc3)c2n1`, for which the viability, T/C is 91.6% and 114% and 86.8% (compound 0.0316 µM); 87.8% and 92.6% and 89.9% (compound 0.1 µM); 101% and 104% and 102% (compound 0.316 µM); 87.8% and 99.7% and 99.6% (compound 1 µM); 110% and 85.1% and 69.7% (compound 3.16 µM); 95.9% and 87.4% and 81.4% (compound 10 µM). Besides, the IC50 (curve of compound) is more than 10000 nM.
`Cc1[nH]c2ccc(F)cc2c1-c1nc2c3cccnc3c3ncccc3c2[nH]1`: under “compound 10 µM”, the viability, T/C is 106% [middle of 12 runs]. The IC50 by setting is: (compound alone, run of 03/18/2024) more than 10000 nM; under setting [1], more than 10000 nM.
Turning to `CCc1c2c(nc3ccc(O)cc13)-c1cc3c(c(=O)n1C2)COC(=O)[C@]3(O)CC` + CN(C)c1ccc(Nc2c3ccc(NC(=O)CCN4CCCC4)cc3nc3cc(NC(=O)CCN4CCCC4)ccc23)cc1, the IC50 reads like this: (curve of first compound, second compound 0.0316 µM) 6.5 nM; (curve of first compound, second compound 0.1 µM) 6.99 nM; (curve of first compound, second compound 0.316 µM) 6.11 nM; (curve of first compound, second compound 1 µM) 6.51 nM; (curve of first compound, second compound 3.16 µM) 6.83 nM; (curve of first compound, second compound 10 µM) 8.98 nM. For the same compound, the viability, T/C by setting is: (second compound 0.0316 µM, first compound 0.000999 µM) 99.2%; (second compound 0.0316 µM, first compound 0.00316 µM) 78.4%; (second compound 0.0316 µM, first compound 0.00999 µM) 34.1%; (second compound 0.0316 µM, first compound 0.0316 µM) 10.4%; (second compound 0.0316 µM, first compound 0.0999 µM) 10.1%; (second compound 0.0316 µM, first compound 0.316 µM) 20.1%. Further, the viability, T/C is, setting by setting: (second compound 0.1 µM, first compound 0.000999 µM) 96.4%; (second compound 0.1 µM, first compound 0.00316 µM) 94.1%; (second compound 0.1 µM, first compound 0.00999 µM) 30%; (second compound 0.1 µM, first compound 0.0316 µM) 7.58%; (second compound 0.1 µM, first compound 0.0999 µM) 12%; (second compound 0.1 µM, first compound 0.316 µM) 16.8%. The viability, T/C by setting is: (second compound 0.316 µM, first compound 0.000999 µM) 90.6%; (second compound 0.316 µM, first compound 0.00316 µM) 74.3%; (second compound 0.316 µM, first compound 0.00999 µM) 32.5%; (second compound 0.316 µM, first compound 0.0316 µM) 9.44%; (second compound 0.316 µM, first compound 0.0999 µM) 12.3%; (second compound 0.316 µM, first compound 0.316 µM) 13.8%. Besides, the viability, T/C was 96% (second compound 1 µM, first compound 0.000999 µM); 77.5% (second compound 1 µM, first compound 0.00316 µM); 34.4% (second compound 1 µM, first compound 0.00999 µM); 12.8% (second compound 1 µM, first compound 0.0316 µM); 11.8% (second compound 1 µM, first compound 0.0999 µM); 17.7% (second compound 1 µM, first compound 0.316 µM). In addition, the viability, T/C reads like this: (second compound 3.16 µM, first compound 0.000999 µM) 96.7%; (second compound 3.16 µM, first compound 0.00316 µM) 79.8%; (second compound 3.16 µM, first compound 0.00999 µM) 36.3%; (second compound 3.16 µM, first compound 0.0316 µM) 11.4%; (second compound 3.16 µM, first compound 0.0999 µM) 12.9%; (second compound 3.16 µM, first compound 0.316 µM) 20.6%. The viability, T/C is 111% (second compound 10 µM, first compound 0.000999 µM); 89.1% (second compound 10 µM, first compound 0.00316 µM); 49.3% (second compound 10 µM, first compound 0.00999 µM); 14.4% (second compound 10 µM, first compound 0.0316 µM); 17.4% (second compound 10 µM, first compound 0.0999 µM); 23.3% (second compound 10 µM, first compound 0.316 µM).

The values above are taken from PubChem BioAssay AID2060489 (Molecular Pharmacology Branch, DTP, NCI, 2025).
